According to patent US20250000819A1, “Anti-hypoxic/anoxic injury use of a magnolol and/or honokiol aromatic ring amino-substituted derivative, and a pharmaceutical composition” (BEIJING HONGHUI MEDITECH CO., LTD., priority 2021, published 2025):

How the values were obtained:
Type in all cases: in vivo, rat
[1] = test system: SD male rats, hypoxia (the oxygen content was 11%) treatment; test: Blood gas analysis of femoral artery blood in hypoxia-treated rats
Description: 2. Animal model: SPF-grade SD male rats, 220-240 g of the weight, and hypoxia (the oxygen content was 11%) treatment. 3. Experimental grouping: a hypoxia treatment control group, there were 4 rats in each group; and a hypoxia treatment administration group, there were 4 rats in each group. 4. Administration mode: before the hypoxia treatment, a single intravenous injection was administered to each rat in the hypoxia treatment administration group. 5. […] 2. Animal model: SPF-grade SD male rats, 220-240 g of the weight, and hypoxia (the oxygen content was 11%) treatment. 3. Experimental grouping: a hypoxia treatment control group, there were 4 rats in each group; and a hypoxia treatment administration group, there were 4 rats in each group. 4. Administration mode: before the hypoxia treatment, a single intravenous injection was administered to each rat in the hypoxia treatment administration group. 5. […] 2. Animal model: SPF-grade SD male rats, 220-240 g of the weight, and hypoxia (the oxygen content was 11%) treatment. 3. Experimental grouping: a hypoxia treatment control group, there were 4 rats in each group; and a hypoxia treatment administration group, there were 4 rats in each group. 4. Administration mode: single gavage administration of each rat in the hypoxic treatment group prior to hypoxic treatment. 5. […] 2. Animal model: SPF-grade SD male rats, 220-240 g of the weight, and hypoxia (the oxygen content was 11%) treatment. 3. Experimental grouping: a hypoxia treatment control group, there were 4 rats in each group; and a hypoxia treatment administration group, there were 4 rats in each group. 4. Administration mode: before the hypoxia treatment, a single intravenous injection was administered to each rat in the hypoxia treatment administration group. 5. […] 2. Animal model: SPF-grade SD male rats, 220-240 g of the weight, and hypoxia (the oxygen content was 11%) treatment. 3. Experimental grouping: a hypoxia treatment control group, there were 4 rats in each group; and a hypoxia treatment administration group, there were 4 rats in each group. 4. Administration mode: before the hypoxia treatment, a single intravenous injection was administered to each rat in the hypoxia treatment administration group. 5. […]

[2] = test system: SD male rats, hypoxia (the oxygen content was 11%) treatment; test: Respiratory rate evaluated during blood collection in hypoxia-treated rats; conditions: p<0.05
Description: 2. Animal model: SPF-grade SD male rats, 220-240 g of the weight, and hypoxia (the oxygen content was 11%) treatment. 4. Administration mode: before the hypoxia treatment, a single intravenous injection was administered to each rat in the hypoxia treatment administration group. 6. Respiratory rate: the rat respiratory rate was evaluated during blood collection. 2. Animal model: SPF-grade SD male rats, 220-240 g of the weight, and hypoxia (the oxygen content was 11%) treatment. 4. Administration mode: before the hypoxia treatment, a single intravenous injection was administered to each rat in the hypoxia treatment administration group. 6. Respiratory rate: the rat respiratory rate was evaluated during blood collection. 2. Animal model: SPF-grade SD male rats, 220-240 g of the weight, and hypoxia (the oxygen content was 11%) treatment. 4. Administration mode: single gavage administration of each rat in the hypoxic treatment group prior to hypoxic treatment. 6. Respiratory rate: the rat respiratory rate was evaluated during blood collection. 2. Animal model: SPF-grade SD male rats, 220-240 g of the weight, and hypoxia (the oxygen content was 11%) treatment. 4. Administration mode: before the hypoxia treatment, a single intravenous injection was administered to each rat in the hypoxia treatment administration group. 2. Animal model: SPF-grade SD male rats, 220-240 g of the weight, and hypoxia (the oxygen content was 11%) treatment. 4. Administration mode: before the hypoxia treatment, a single intravenous injection was administered to each rat in the hypoxia treatment administration group. 6. Respiratory rate: the rat respiratory rate was evaluated during blood collection.

[3] = test system: lung tissues of SD rats, hypoxia (the oxygen content was 11%) treatment; test: H&E staining / pathological analysis of lung tissue paraffin sections after hypoxia treatment; conditions: 1 mg/kg single intravenous injection, after 24 h of hypoxia treatment
Description: 2. Animal model: SPF-grade SD male rats, 220-240 g of the weight, and hypoxia (the oxygen content was 11%) treatment. 4. Administration mode: before the hypoxia treatment, a single intravenous injection was administered to each rat in the hypoxia treatment administration group. 7. Hematoxylin-eosin (H&E) staining: Lung tissues of the hypoxia treatment (24 h) control group and the hypoxia treatment (24 h) administration group (dose: 1 mg/kg) were taken for paraffin section preparation, staining, and case analysis. 1) Paraffin sections were dewaxed to water: the sections were sequentially placed in xylene I for 20 min, xylene II for 20 min, anhydrous ethanol I for 5 min, anhydrous ethanol II for 5 min, and 75% alcohol for 5 min, and finally washed with tap water. 2) Hematoxylin staining: the sections were placed in hematoxylin staining solution and stained for 3-5 min, then washed with the tap water, and differentiated with differentiation solution, then washed with the tap water. It returned to blue by blue returning solution, and finally it was washed with running water. 3) Eosin staining: the sections were sequentially dehydrated with 85% and 95% of gradient alcohol for 5 min respectively, and placed in eosin staining solution and stained for 5 min. […]

C=CCc1cc(N)c(O)c(-c2ccc(O)c(CC=C)c2)c1 [Compound 1, 3′, 5-diallyl-3-amino-[1,1′-biphenyl]-2,4′-diol]
blood oxygen partial pressure (PO2) vs control group ([1]; 0.58 mg/kg single intravenous injection before hypoxia, after 24 h of hypoxia treatment, p=0.0012): significantly higher than those of the control group
blood oxygen saturation (SO2) vs control group ([1]; 0.58 mg/kg single intravenous injection before hypoxia, after 24 h of hypoxia treatment, p=0.019): significantly higher than those of the control group
respiratory rate (RR) vs control group ([2]; 0.58 mg/kg single intravenous injection, after 24 h of hypoxia treatment): lower than that of the control group, and the different was significant

C=CCc1cc(NC(=O)[C@@H](N)CCCCN)c(O)c(-c2ccc(O)c(CC=C)c2)c1.Cl.Cl [Compound 2, (S)-2,6-diamino-N-(3′,5-diallyl-2,4′-dihydroxy-[1,1′-biphenyl]-3-yl) hexanamide dihydrochloride]
lung tissue injuries (H&E pathological analysis) vs control group [3]: able to alleviate the tissue injuries caused by hypoxia (anoxia)
blood oxygen saturation (SO2) vs control group ([1]; 0.25 mg/kg single intravenous injection, after 1 h of hypoxia treatment, p=0.023): higher than that of the control group, and the difference was significant
blood oxygen partial pressure (PO2) vs control group ([1]; 0.25 mg/kg single intravenous injection, after 1 h of hypoxia treatment, p=0.059): higher than that of the control group, but the difference was not significant
blood oxygen saturation (SO2) vs control group ([1]; 0.25 mg/kg single intravenous injection, after 6 h of hypoxia treatment, p=0.015): higher than those of the control group, and the difference was significant
blood oxygen partial pressure (PO2) vs control group ([1]; 0.25 mg/kg single intravenous injection, after 6 h of hypoxia treatment, p=0.018): higher than those of the control group, and the difference was significant
blood oxygen saturation (SO2) vs control group ([1]; 1 mg/kg single intravenous injection, after 6 h of hypoxia treatment, p=0.0012): higher than that of the control group, and the difference was significant
blood oxygen partial pressure (PO2) vs control group ([1]; 1 mg/kg single intravenous injection, after 6 h of hypoxia treatment, p=0.003): higher than that of the control group, and the difference was significant
blood oxygen saturation (SO2) vs control group ([1]; 1 mg/kg single intravenous injection, after 24 h of hypoxia treatment, p=0.001): higher than those of the control group, and the difference was significant
blood oxygen partial pressure (PO2) vs control group ([1]; 1 mg/kg single intravenous injection, after 24 h of hypoxia treatment, p=0.0012): higher than those of the control group, and the difference was significant
blood oxygen saturation (SO2) vs control group ([1]; 40 mg/kg single gavage (intragastric) administration, after 24 h of hypoxia treatment, p=0.016): higher than those of the control group, and the difference was significant
blood oxygen partial pressure (PO2) vs control group ([1]; 40 mg/kg single gavage (intragastric) administration, after 24 h of hypoxia treatment, p=0.036): higher than those of the control group, and the difference was significant
respiratory rate (RR) vs control group ([2]; 1 mg/kg single intravenous injection, after 6 h of hypoxia treatment): lower than that of the control group, and the difference was significant
respiratory rate (RR) vs control group ([2]; 1 mg/kg single intravenous injection, after 24 h of hypoxia treatment): lower than that of the control group, and the difference was significant
respiratory rate (RR) vs control group ([2]; 40 mg/kg single gavage (intragastric) administration, after 24 h of hypoxia treatment): lower than that of the control group, and the difference was significant

C=CCc1cc(NC(=O)[C@@H](N)CCSC)c(O)c(-c2ccc(O)c(CC=C)c2)c1.Cl [Compound 3, (S)-2-amino-N-(3′,5-diallyl-2,4′-dihydroxy-[1,1′-biphenyl]-3-yl)-4-(methylthio) butanamide hydrochloride]
blood oxygen saturation (SO2) vs control group ([1]; 0.93 mg/kg single intravenous injection, after 24 h of hypoxia treatment, p=0.06): higher than that of the control group
respiratory rate (RR) vs control group ([2]; 0.93 mg/kg single intravenous injection, after 24 h of hypoxia treatment): lower than that of the control group, and the difference was significant

C=CCc1cc(NC(C)=O)c(O)c(-c2ccc(O)c(CC=C)c2)c1 [Compound 4, N-(3′,5-diallyl-2,4′-dihydroxy-[1,1′-biphenyl]-3-yl) acetamide]
blood oxygen saturation (SO2) vs control group ([1]; 0.67 mg/kg single intravenous injection, after 24 h of hypoxia treatment, p=0.0023): higher than those of the control group
blood oxygen partial pressure (PO2) vs control group ([1]; 0.67 mg/kg single intravenous injection, after 24 h of hypoxia treatment, p=0.023): higher than those of the control group
respiratory rate (RR) vs control group ([2]; 0.67 mg/kg single intravenous injection, after 24 h of hypoxia treatment): lower than that of the control group, and the difference was significant
